Test results reported in patent US20100021519A1, “Compositions and Methods for Treating or Preventing Diseases of Body Passageways” (priority 2006, published 2010).
Like-named read-outs stand apart in the source and are kept apart here.

Tests used:
liver and lung cancer = conditions: preliminary reports, cited from earlier work
[1] = for THX level, plasma / THX tissue level, lung: rat; for THX level, plasma: intratracheal 3 × 4 mg/kg; for THX tissue level, lung: intratracheal THX-polymer formulation 3 × 4 mg/kg, LC-MS
Method: A screening formulation of thalidomide (THX) and polymer was used for the studies and the rat was chosen a preclinical model.
A pilot pharmacokinetic (PK) study was performed to estimate tracheo-bronchial and lung tissue levels after intra-tracheal application of THX-polymer formulation.
Method: A 10 mg/ml THX-polymer formulation was delivered (to anesthetized rats) at a dose of 4 mg/Kg at a volume of 100 μl dosed 3 times in 4 rats at 30 min intervals. The animals were anesthetized while dosing. […] Blood, tracheo-bronchial and lung tissue was sampled at 20 and 40 min past the third dose. Samples were frozen until processed for LC-MS analysis. […] Only the plasma and lung tissue were analyzed by LC-MS.
Method: A preliminary screening LCMS method was developed for quantitating THX in tissues and plasma. […] The equipment used was a SCIEX PE 3000.
Tissue and Plasma Extraction: The tissue was ground (glass-glass homogenizer) and extracted with 70:30 0.1% formic acid in acetonitrile and 0.1% formic acid in water at a 1:3 ratio of tissue to solvent. Plasma is extracted with the same solvent as the tissue at a 1:2 ratio of plasma to solvent. The supernatant extract was subject to LCMS analysis.

[2] = Pilot in situ intra-tracheal infusion of THX-polymer formulation in rats immediately after termination; type: in vivo, rat; conditions: for THX tissue level, trachea: in situ infusion over 30 mins, 8 mg/kg, 200 μl, tissue harvested after 2 hours
Description: A pilot study of in situ intra-tracheal infusion was performed to estimate tracheal and lung tissue levels after in situ intra-tracheal infusion of THX-polymer formulation.
Method: Two rats (immediately after termination) were intra-tracheally infused over 30 mins with a THX-polymer formulation. The dose was 8 mg/kg and volume was 200 μl. After infusion these were wrapped for 2 hours in a warm heating pad. Tracheo-bronchial and lung tissue were harvested after wiping the lumen area of the tracheo-bronchial lumen with a tissue and spatula (to take off any adsorbed drug) at the end of 2 hours. Samples were frozen at −80 C until processed and analyzed by LC-MS. Sample extraction was conducted at AraVasc Inc. The processed samples were analyzed at Alta Analytical laboratories by LC-MS.

[3] = clinical trials in liver and lung cancer
[4] = rats, intra-tracheal THX-polymer formulation, 12 mg/kg dose (100 μl dosed 3 times)

O=C1CCC(N2C(=O)c3ccccc3C2=O)C(=O)N1 (racemic) [THX, 2-(2,6-dioxo-3-piperidinyl)-1H-isoindole-1,3(2H)-dione]
Disease control rates (liver and lung cancer; [3]): 8%-57%
Response rates (liver and lung cancer; [3]): 4%-10%
Toxicity in clinical trials (in words) (liver and lung cancer): associated with systemic toxicities
THX level, plasma ([1]; 100 μl, 20 mins post 3rd dose, unit of the table head): 0.19 ng/mL
THX level, plasma ([1]; 100 μl, 40 mins post 3rd dose, unit of the table head): 0.44 ng/mL
THX level, plasma ([1]; 20 mins post 3rd dose, unit of the text): 190 ng/mL
THX level, plasma ([1]; 40 mins post 3rd dose, unit of the text): 440 ng/mL
THX tissue level, lung ([1]; 100 μl, 20 mins post 3rd dose): 21.80 μg/100 mg
THX tissue level, lung ([1]; 100 μl, 40 mins post 3rd dose): 16.81 μg/100 mg
Distribution/diffusion into the lung tissue and vasculature (in words) ([1]; rats, intra-tracheal THX-polymer formulation, 12 mg/kg dose): good distribution/diffusion into the lung tissue and vasculature
THX levels in lung tissue (in words) [1, 4]: High levels
THX levels in plasma (in words) [1, 4]: low levels
THX tissue level, trachea ([2]; Rat 1): 211.21 μg/100 mg
THX tissue level, trachea ([2]; Rat 2): 290.36 μg/100 mg
THX levels in tracheo-bronchial and lung tissue (in words) ([2]; rats, in situ intra-tracheal infusion (0.5 hr), 8 mg/kg dose): High levels
